From US20240009170A1, “INHIBITION OF GLYCOGEN SYNTHASE KINASE-3 (GSK-3)” (Brown University, priority 2020, published 2024)
Where two headings read alike, the source gives them in different places.

How the values were obtained:
[1] = test system: SW480 tumor cells; test: Co-culture of CD8+ donor-derived healthy T cells and SW480 tumor cells; assay type: cell-based, Human
Protocol: Isolation of donor derived CD8+ T cells. An Easy Step Human CD8+ T Cell Isolation Kit was used to isolated CD8+ T cells from a donor PBMC sample via negative selection (Cat #, 17913, Stem Cell Technologies, Vancouver, Canada).
Immune cell co-culture experiments. Co-culture experiments were conducted with GFP+ SW480 or HCT-116 colorectal cancer cells and either NK-92 natural killer cells or TALL-104 T cells in a 48-well plate, in the presence or absence of 9-ING-41. HCT-116 cells were labeled using CellTracker™ Green CMFDA (5-chloromethylfluorescein diacetate), immune cells (NK-92, TALL-104) were labeled using CellTracker™ Blue CMAC Dye (7-amino-4-chloromethylcoumarin), and ethidium homodimer-1 (EthD-1) was used as a marker of cell death (Invitrogen, Thermo Fisher Scientific, Waltham, MA, USA).
TALL-104 cells are a human leukemic T cell line. […] Healthy CD8+ T cells were isolated from a donor blood sample consistent with an IRB-approved protocol. A co-culture of GFP+ SW480 tumor cells and Green CM FDA-labeled CD8+ donor-derived healthy T cells was then treated with 9-ING-41 and the % of dead cells out of total cells was quantified after twenty-four hours. […] The data was then normalized, as described earlier.
Pre-treatment with 9-ING-41 sensitizes SW480 tumor cells to immune cell-mediated cell killing. […]

[2] = test system: TALL-104 cells; test: Cytokine profile of immune cell culture supernatant, TALL-104; assay type: cell-based, Human; settings: 1 μM, 48 hours
Protocol: Collection of cell culture supernatants used in cytokine measurements. Cells were plated at 3.5×10^4 cells in a 48-well plate (Thermo Fisher Scientific, Waltham, MA, USA) in complete medium and incubated at 37° C. with 5% CO2. At twenty-four hours after plating, almost all the tumor cells were adherent to the bottom of the flask and the complete medium was replaced with drug-containing medium. Subsequently, the culture supernatants were collected after forty-eight hours of incubation and were frozen at −80° C. until the measurement of cytokines was performed. The day of analysis, samples were thawed and centrifuged to remove cellular debris.
Human cytokine profiling. Human cell line culture supernatants were analyzed using an R&D systems Human Premixed Multi-Analyte Kit (R&D Systems, Inc., Minneapolis, MN, USA) and a Luminex 200 Instrument (LX200-XPON-RUO, Luminex Corporation, Austin, TX, USA) according to the manufacturer's instructions. […]
9-ING-41 increases secreted cytotoxic proteins IFN-v, Granzyme B, and TRAIL in immune cells. […] Here, the inventors determined how 9-ING-41 treatment impacts the immune cell cytokinome. […]

[3] = test system: HT-29; test: Flow cytometric analysis of cell surface markers, HT-29; assay type: cell-based, Human; settings: post-treatment, 48 hours
Protocol: (§1) FIG. 12 is a set of bar graphs showing flow cytometric analyses of cell surface markers of tumor and immune cells treated with 9-ING-41 in vitro. FIG. 12(A) HCT-116, FIG. 12(B) HT-29, FIG. 12(C) TALL-104, and FIG. 12(D) NK-92 cells were treated with indicated concentrations of 9-ING-41 for forty-eight hours, stained for indicated cell surface marker expression, and analyzed with a BD LSRII. Statistical significance was determined using two-tailed unpaired T tests.
(§2) To further understand the differential 9-ING-41-mediated impacts on protein expression, the inventors treated tumor and immune cells in vitro with 9-ING-41, then performed a flow cytometric analysis for expression of cell surface markers. […] A similar trend occurred in HT-29 cells, although not statistically significant. […] FIG. 10(C). […] FIG. 10(D).

[4] = test system: NK-92; test: Flow cytometric analysis of cell surface markers, NK-92; assay type: cell-based, Human; settings: 48 hours
Protocol: as §1, §2

[5] = test system: TALL-104; test: Flow cytometric analysis of cell surface markers, TALL-104; assay type: cell-based, Human; settings: compared to DMSO treatment alone
Protocol: as §1, §2

[6] = test system: pulmonary fibrosis; settings: cited from earlier work
[7] = test system: GSK-3; settings: cited from earlier work

Question: What does the source list for Cn1cc(C2=C(c3coc4ccc(F)cc34)C(=O)NC2=O)c2cc3c(cc21)OCO3 [9-ING-41]?
Answer: tumor cell death in co-cultures with CD8+ donor-derived healthy T cells ([1]; 24 hours, normalized): Even more impressive tumor cell death; tumor cell death after tumor cell pre-treatment, CD8+ T cells ([1]; pre-treatment of tumor cells, 24 hours of co-culture): statistically significant increase in tumor cell death; IFN-γ, granzyme B, and TRAIL concentrations [2]: increases; HLA-E and PD-L1 surface expression [3]: statistically significant increase; TRAIL and LAG3 surface expression [4]: increases; checkpoint molecule NKG2A surface expression [4]: statistically significant decreases; TRAIL expression [5]: significant decreased; pulmonary fibrosis and pulmonary function ([6]; models of TGF-β): reduced pulmonary fibrosis and improved pulmonary function; pulmonary fibrosis and pulmonary function ([6]; models of bleomycin pulmonary fibrosis): reduced pulmonary fibrosis and improved pulmonary function; GSK-3 isoforms inhibited [7]: inhibits both α and β isoforms; potency compared with other GSK-3 inhibitors [7]: significantly more potent
